Experimental data as given in article PMC10709440, “High-throughput ligand profile characterization in novel cell lines expressing seven heterologous insect olfactory receptors for the detection of volatile plant biomarkers” (Scientific Reports, 2023).

Columns and labels:
Test in all cases: cell-based
Set-up in all cases: GCaMP6 calcium fluorescence in stable HEK293 OR+ORCO lines; peak dF normalised to 50 uM VUAA1 (=1)
[1] = biological target: T1, Drosophila OR85b (Drosophila melanogaster, UniProt Q9VHQ7); conditions: relative to 50 uM VUAA1 response, below 0.05 set to 0; for activity at 1 µM / activity at 100 µM / activity at 10 µM: HEK293, read-out: % activation; for % activation: agonist
T1 construct: expressed in transfected cells
T1 sequence (Q9VHQ7 1-390): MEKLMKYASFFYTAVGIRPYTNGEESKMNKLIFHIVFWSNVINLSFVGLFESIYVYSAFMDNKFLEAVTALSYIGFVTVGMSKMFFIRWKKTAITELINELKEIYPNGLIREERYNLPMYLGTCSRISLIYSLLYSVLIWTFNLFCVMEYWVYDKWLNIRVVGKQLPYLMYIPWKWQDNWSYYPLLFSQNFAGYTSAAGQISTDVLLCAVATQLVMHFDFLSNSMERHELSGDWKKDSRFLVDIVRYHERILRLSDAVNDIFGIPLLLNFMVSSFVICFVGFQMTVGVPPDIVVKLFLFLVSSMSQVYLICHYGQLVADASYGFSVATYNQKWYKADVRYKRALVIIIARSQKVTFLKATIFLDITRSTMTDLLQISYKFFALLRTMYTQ
T1 sequence (Q9VNB5 1-486 partner): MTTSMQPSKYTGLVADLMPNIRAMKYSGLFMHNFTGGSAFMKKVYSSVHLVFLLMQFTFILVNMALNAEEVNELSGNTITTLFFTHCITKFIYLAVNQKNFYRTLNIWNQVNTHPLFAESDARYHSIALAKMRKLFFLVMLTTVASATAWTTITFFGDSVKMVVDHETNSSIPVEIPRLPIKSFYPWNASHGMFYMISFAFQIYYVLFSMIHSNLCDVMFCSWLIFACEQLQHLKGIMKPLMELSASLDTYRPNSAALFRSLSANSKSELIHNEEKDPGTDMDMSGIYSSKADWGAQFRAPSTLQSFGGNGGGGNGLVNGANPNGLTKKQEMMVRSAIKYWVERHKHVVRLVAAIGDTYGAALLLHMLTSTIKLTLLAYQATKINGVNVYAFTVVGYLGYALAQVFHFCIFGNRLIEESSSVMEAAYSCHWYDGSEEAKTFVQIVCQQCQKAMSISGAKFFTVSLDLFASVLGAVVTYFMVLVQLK
Protocol: (§1) Twelve thousand to 18,000 cells were plated into each well of a black wall, transparent bottom 384-well microplate (Greiner) 48 h or 72 h before the measurements and were simultaneously treated with 1 μg/mL doxycycline. […] The plate has 24 columns, thus we could record responses in up to eight different cell lines in each plate. On the day of the experiment, the growth medium was replaced with 20 µL assay buffer/well (140 mM NaCl, 5 mM KCl, 2 mM CaCl2, 1 mM MgCl2, 5 mM HEPES-Na, 20 mM glucose, pH 7.3, 340 mOsm). […] Baseline fluorescence (F0) was recorded for 5 s, after which 7 µL VOC buffer (140 mM NaCl, 5 mM KCl, 2 mM CaCl2, 1 mM MgCl2, 5 mM HEPES-Na, 31 mM glucose, 0.1% DMSO, pH 7.3, 340 mOsm) was injected into each well in one row and the fluorescence response was recorded for an additional 30 s, at a rate of one read/sec. VOC solutions (VOC buffer with 4× concentration of the final measured VOC concentration, 9 µL/well was injected) were measured on the same wells in a second round with the same protocol. Each individual concentration of a specific VOC sample was recorded in three wells for the same cell line on the same microplate. The raw data were exported in xls file format, F0 and FMAX values, and the fluorescence intensity changes (∆F) were calculated in Excel (Microsoft) (Supplementary file Data summary.xlsx) using the following equation: ΔF=FMAX-F0/F0 (see also Fig. 1C). On each plate, we recorded the response of each cell line to 50 µM VUAA1. The average of these ∆F values of each cell line were used to calculate the VUAA1-normalized values for the rest of the plate, by dividing VOC response ∆F values by the average VUAA1 response ∆F value of the corresponding OR cell line. Each VOC-OR combination was measured three times as tec The recorded FMAX, F0, ∆F, VUAA1-normalized ∆F values, as well as the OR name, the name of the tested sample, and the final concentration for each well were copied into supplementary file Data summary.xlsx, that was used to summarize all the plates recorded. Here, the averages of the measurements were calculated for each receptor-VOC-concentration combination. […] Each VOC was measured at 1, 10, and 100 µM final concentration on each receptor. VUAA1-normalized response was calculated as described in methods.

[2] = biological target: T2, Drosophila OR49b (Drosophila melanogaster, UniProt Q9V6H2); conditions: HEK293; relative to 50 uM VUAA1 response; below 0.05 set to 0; read-out: % activation
T2 construct: expressed in transfected cells
T2 sequence (Q9V6H2 1-375): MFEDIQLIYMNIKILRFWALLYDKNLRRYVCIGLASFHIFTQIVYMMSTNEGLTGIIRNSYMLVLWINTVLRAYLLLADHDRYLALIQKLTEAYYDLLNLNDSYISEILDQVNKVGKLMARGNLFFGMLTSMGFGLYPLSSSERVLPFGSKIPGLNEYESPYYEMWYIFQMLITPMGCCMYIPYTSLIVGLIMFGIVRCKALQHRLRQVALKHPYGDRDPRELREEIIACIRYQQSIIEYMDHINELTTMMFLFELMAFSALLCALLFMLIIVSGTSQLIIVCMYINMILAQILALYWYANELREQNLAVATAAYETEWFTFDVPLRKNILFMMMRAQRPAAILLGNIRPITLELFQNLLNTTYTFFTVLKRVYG
T2 sequence (Q9VNB5 1-486 partner): T1 sequence (Q9VNB5 1-486 partner)
Protocol: as §1

[3] = biological target: T3, Drosophila OR10a (Drosophila melanogaster, UniProt Q9VYZ1); conditions: relative to 50 uM VUAA1 response, below 0.05 set to 0; for activity at 1 µM / activity at 10 µM / activity at 100 µM: HEK293, read-out: % activation; for % activation: agonist
T3 construct: expressed in transfected cells
T3 sequence (Q9VYZ1 1-406): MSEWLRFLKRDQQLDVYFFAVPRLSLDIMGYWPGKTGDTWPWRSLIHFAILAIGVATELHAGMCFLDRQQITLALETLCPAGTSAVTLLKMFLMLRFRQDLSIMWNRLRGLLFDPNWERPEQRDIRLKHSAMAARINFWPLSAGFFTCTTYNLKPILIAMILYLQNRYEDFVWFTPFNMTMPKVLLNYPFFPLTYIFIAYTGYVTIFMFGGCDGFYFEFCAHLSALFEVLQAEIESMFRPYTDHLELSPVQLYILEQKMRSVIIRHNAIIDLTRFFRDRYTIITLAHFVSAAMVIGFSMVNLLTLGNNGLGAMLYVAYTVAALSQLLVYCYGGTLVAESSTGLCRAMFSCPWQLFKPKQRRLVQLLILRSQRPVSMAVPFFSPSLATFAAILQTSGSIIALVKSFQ
T3 sequence (Q9VNB5 1-486 partner): T1 sequence (Q9VNB5 1-486 partner)
Protocol: as §1

Compound	activity at 1 µM [1]	activity at 100 µM [1]	activity at 1 µM [2]	activity at 100 µM [2]	activity at 10 µM [1]	also measured
CCCOC(C)=O [propyl acetate]	5.38%	–	–	–	–	–
C=CC(C)(O)CCC=C(C)C (stereo not shown) [linalool]	–	6.3%	–	–	–	–
Cc1cccc(C)c1 [m-xylene]	–	8.8%	–	–	–	–
Cc1ccccc1C [o-xylene]	8.04%	8.27%	–	–	–	–
CCCCCOC(C)=O [pentyl acetate]	–	–	7.95%	6.1%	–	–
CC/C=C\CCOC(C)=O [Z-3-hexenyl acetate]	14.5%	–	–	–	–	–
C=C1CC[C@@]23C[C@@H]1C(C)(C)[C@@H]2CC[C@H]3C [(+)-beta-cedrene]	0%	0%	0%	0%	0%	activity at 1 µM [3]: 0%; activity at 10 µM [3]: 0%; activity at 100 µM [3]: 0%; activity at 10 µM [2]: 0%
CCCCCCCCCCCCCC [tetradecane]	9.72%	–	6.86%	–	8.44%	activity at 10 µM [2]: 5.2%
C=C(C)[C@H]1CC=C(C)CC1 [(R)-(+)-limonene]	–	–	0%	0%	–	% activation ([1]; 10 µM, 10 / OR85b): 0%; % activation ([1]; 100 µM, 100 / OR85b): 0%; % activation ([1]; 1 / OR85b, 1 µM): 0%; activity at 1 µM [3]: 0%; % activation ([3]; 10 µM, 10 / OR10a): 0.1196%; activity at 10 µM [2]: 0%
COC(=O)c1ccccc1 [methyl benzoate]	–	–	13.4%	–	–	–
CC1=CCC[C@@]2(C)[C@@H]3CC[C@]12CC3(C)C [(−)-α-neoclovene]	–	–	–	–	–	activity at 10 µM [3]: 13.1%; activity at 100 µM [3]: 12.4%
C=C1CCC2(C(C)C)CC12 (stereo not shown) [sabinene]	6.47%	8.7%	–	–	–	–
Cc1ccc(C)cc1 [p-xylene]	–	6.07%	–	–	15.2%	–
Cc1ccc(C(C)C)cc1 [p-cymene]	–	9.05%	–	–	11.7%	–
C=C(C)[C@H]1CC=C(C)CC1 [limonene]	–	–	–	–	–	% activation ([1]; 10 µM, 10 / OR85b): 0.08814%; % activation ([1]; 100 µM, 100 / OR85b): 0.06443%; % activation ([1]; 1 / OR85b, 1 µM): 0.07022%; % activation ([3]; 10 µM, 10 / OR10a): 0%; % activation ([3]; 100 µM, 100 / OR10a): 0.05729%
C=C(C)C1CCC2(C)OC2C1 (single isomer, unassigned; (+)) [(+)-limonene oxide]	0%	0%	0%	0%	0%	activity at 1 µM [3]: 0%; activity at 10 µM [3]: 0%; activity at 100 µM [3]: 0%; activity at 10 µM [2]: 0%
C=C1[C@H]2CC[C@@H]3[C@H]2C(C)(C)CCC[C@]13C [(+)-longifolene]	8.34%	0%	7.75%	0%	10.9%	activity at 1 µM [3]: 8.31%; activity at 10 µM [3]: 5.37%; activity at 100 µM [3]: 0%; activity at 10 µM [2]: 0%
OCCc1ccccc1 [phenethyl alcohol]	9.88%	–	–	9.32%	7.58%	–
